12 molecules from ChEMBL document CHEMBL5518226, “A Vancomycin-Templated DNA-Encoded Library for Combating Drug-Resistant Bacteria” (2024) can be followed below.

Type in all cases: functional
The test system of assay [1] is Staphylococcus aureus. As to the kind of experiment: Antibacterial activity against methicillin sensitive Staphylococcus aureus Newman assessed as inhibition of bacterial growth incubated for 24 hrs by CLSI protocol based broth microdilution method.
In assay [2] the test system is Staphylococcus aureus. As to the kind of experiment: Antibacterial activity against methicillin sensitive Staphylococcus aureus clinical isolate 20-45 assessed as inhibition of bacterial growth incubated for 24 hrs by CLSI protocol based broth microdilution method.
For assay [3], the system named is Staphylococcus aureus. As to the kind of experiment: Antibacterial activity against methicillin sensitive Staphylococcus aureus ATCC29213 assessed as inhibition of bacterial growth incubated for 24 hrs by CLSI protocol based broth microdilution method.
The test system of assay [4] is Staphylococcus aureus. As to the kind of experiment: Antibacterial activity against methicillin resistant Staphylococcus aureus USA300 assessed as inhibition of bacterial growth incubated for 24 hrs by CLSI protocol based broth microdilution method.
The test system of assay [5] is Staphylococcus aureus. As to the kind of experiment: Antibacterial activity against vancomycin-intermediate resistant Staphylococcus aureus ATCC700699 assessed as inhibition of bacterial growth incubated for 24 hrs by CLSI protocol based broth microdilution method.
Assay [6] concerns Staphylococcus epidermidis. Description: Antibacterial activity against methicillin sensitive Staphylococcus epidermidis clinical isolate 20-1 assessed as inhibition of bacterial growth incubated for 24 hrs by CLSI protocol based broth microdilution method.
Assay [7] deals with Staphylococcus epidermidis. Description: Antibacterial activity against methicillin resistant Staphylococcus epidermidis clinical isolate 20-1 assessed as inhibition of bacterial growth incubated for 24 hrs by CLSI protocol based broth microdilution method.
Assay [8] concerns Enterococcus faecalis. Description: Antibacterial activity against Enterococcus faecalis clinical isolate 20-11 assessed as inhibition of bacterial growth incubated for 24 hrs by CLSI protocol based broth microdilution method.
In assay [9] the test system is Enterococcus faecalis. As to the kind of experiment: Antibacterial activity against vancomycin resistant Enterococcus faecalis clinical isolate 20-1 assessed as inhibition of bacterial growth incubated for 24 hrs by CLSI protocol based broth microdilution method.
Assay [10] relates to Enterococcus faecium. As to the kind of experiment: Antibacterial activity against Enterococcus faecium clinical isolate 20-15 assessed as inhibition of bacterial growth incubated for 24 hrs by CLSI protocol based broth microdilution method.
In assay [11] the test system is Enterococcus faecium. Description: Antibacterial activity against Enterococcus faecium clinical isolate 20-16 assessed as inhibition of bacterial growth incubated for 24 hrs by CLSI protocol based broth microdilution method.
Assay [12] relates to Streptococcus pneumoniae. As to the kind of experiment: Antibacterial activity against penicillin susceptible Streptococcus pneumoniae clinical isolate 20-1 assessed as inhibition of bacterial growth incubated for 24 hrs by CLSI protocol based broth microdilution method.
The subject of assay [13] is Streptococcus pneumoniae. As to the kind of experiment: Antibacterial activity against Streptococcus pneumoniae ATCC49619 assessed as inhibition of bacterial growth incubated for 24 hrs by CLSI protocol based broth microdilution method.
In assay [14] the test system is Enterococcus faecium. As to the kind of experiment: Antibacterial activity against vancomycin-resistant Enterococcus faecium 0649 assessed as reduction in bacterial growth by measuring fold change at 0.0625 to 64 ug/ml incubated for 24 hrs by CLSI protocol based broth microdilution method relative to vancomycin. The following applies: dose 0.0625-64 µg/ml.
Assay [15] concerns Staphylococcus aureus. Description: Antibacterial activity against vancomycin-intermediate resistant Staphylococcus aureus Mu50 assessed as reduction in bacterial growth by measuring fold change at 0.0625 to 64 ug/ml incubated for 24 hrs by CLSI protocol based broth microdilution method relative to vancomycin. As to conditions: dose 0.0625-64 µg/ml.

≈ marks a conversion by molar mass, not a printed value.

Regarding `CN[C@H](CC(C)C)C(=O)N[C@H]1C(=O)N[C@@H](CC(N)=O)C(=O)N[C@H]2C(=O)N[C@H]3C(=O)N[C@H](C(=O)N[C@H](C(=O)O)c4cc(O)cc(O)c4-c4cc3ccc4O)[C@H](O)c3ccc(c(Cl)c3)Oc3cc2cc(c3O[C@@H]2O[C@H](CO)[C@@H](O)[C@H](O)[C@H]2O[C@H]2C[C@](C)(NCc3ccc(Oc4ccccc4)cc3)[C@H](O)[C@H](C)O2)Oc2ccc(cc2Cl)[C@H]1O`, the minimal inhibitory concentration (MIC) is ≤ 0.06 µg/mL in assay [1]; ≤ 0.03 µg/mL in assay [2]; ≤ 0.03 µg/mL in [3]; ≤ 0.06 µg/mL in assay [4]; 0.5 µg/mL (≈ 0.306 µM) in [5]; 0.125 µg/mL (≈ 0.0766 µM) in assay [6]. For the same molecule, the minimal inhibitory concentration (MIC) in assay [7] was 0.25 µg/mL (≈ 0.153 µM); in [8], ≤ 0.03 µg/mL; in assay [9], 8 µg/mL (≈ 4.9 µM); in [10], ≤ 0.03 µg/mL; in [11] it was ≤ 0.03 µg/mL; in assay [12] it was ≤ 0.03 µg/mL. The minimal inhibitory concentration (MIC) in assay [13] is ≤ 0.03 µg/mL. The “fold change (FC)” value in assay [14] came out at 16; in assay [15], 8.
With `CN[C@H](CC(C)C)C(=O)N[C@H]1C(=O)N[C@@H](CC(N)=O)C(=O)N[C@H]2C(=O)N[C@H]3C(=O)N[C@H](C(=O)N[C@H](C(=O)O)c4cc(O)cc(O)c4-c4cc3ccc4O)[C@H](O)c3ccc(c(Cl)c3)Oc3cc2cc(c3O[C@@H]2O[C@H](CO)[C@@H](O)[C@H](O)[C@H]2O[C@H]2C[C@](C)(NCc3ccc(-c4ccccc4)s3)[C@H](O)[C@H](C)O2)Oc2ccc(cc2Cl)[C@H]1O`, the “fold change (FC)” value in assay [14] worked out at 16; in [15], 8.
In the case of `CN[C@H](CC(C)C)C(=O)N[C@H]1C(=O)N[C@@H](CC(N)=O)C(=O)N[C@H]2C(=O)N[C@H]3C(=O)N[C@H](C(=O)N[C@H](C(=O)O)c4cc(O)c(CN(C)Cc5cn(-c6cccc(NC(=O)OC(C)(C)C)c6)nn5)c(O)c4-c4cc3ccc4O)[C@H](O)c3ccc(c(Cl)c3)Oc3cc2cc(c3O[C@@H]2O[C@H](CO)[C@@H](O)[C@H](O)[C@H]2O[C@H]2C[C@](C)(NCc3ccccc3Oc3ccccc3)[C@H](O)[C@H](C)O2)Oc2ccc(cc2Cl)[C@H]1O`, the “fold change (FC)” value in assay [14] is 8.
Same read-out and setting: then `CN[C@H](CC(C)C)C(=O)N[C@H]1C(=O)N[C@@H](CC(N)=O)C(=O)N[C@H]2C(=O)N[C@H]3C(=O)N[C@H](C(=O)N[C@H](C(=O)O)c4cc(O)c(CN(C)Cc5cn(-c6cccc(NC(=O)OC(C)(C)C)c6)nn5)c(O)c4-c4cc3ccc4O)[C@H](O)c3ccc(c(Cl)c3)Oc3cc2cc(c3O[C@@H]2O[C@H](CO)[C@@H](O)[C@H](O)[C@H]2O[C@H]2C[C@](C)(NCc3ccccc3-c3ccccc3)[C@H](O)[C@H](C)O2)Oc2ccc(cc2Cl)[C@H]1O`, with 8.
On to `CN[C@H](CC(C)C)C(=O)N[C@H]1C(=O)N[C@@H](CC(N)=O)C(=O)N[C@H]2C(=O)N[C@H]3C(=O)N[C@H](C(=O)N[C@H](C(=O)O)c4cc(O)cc(O)c4-c4cc3ccc4O)[C@H](O)c3ccc(c(Cl)c3)Oc3cc2cc(c3O[C@@H]2O[C@H](CO)[C@@H](O)[C@H](O)[C@H]2O[C@H]2C[C@](C)(NCc3ccc(Oc4cc(Cl)cc(Cl)c4)cc3)[C@H](O)[C@H](C)O2)Oc2ccc(cc2Cl)[C@H]1O`, for which the MIC was ≤ 0.06 µg/mL in assay [1]; ≤ 0.015 µg/mL in assay [2]; ≤ 0.015 µg/mL in assay [3]; ≤ 0.06 µg/mL in assay [4]; 0.125 µg/mL (≈ 0.0735 µM) in assay [5]; ≤ 0.015 µg/mL in assay [6]. For the same molecule, the minimal inhibitory concentration (MIC) in [8] is ≤ 0.015 µg/mL; in assay [9], 4 µg/mL (≈ 2.35 µM); in assay [10] it was ≤ 0.015 µg/mL; in [11], 0.03 µg/mL (≈ 0.0176 µM); in [12], ≤ 0.015 µg/mL; in assay [13], ≤ 0.015 µg/mL. Besides, the “fold change (FC)” value in assay [14] was 16; in assay [15] it was 8.
In the case of `CN[C@H](CC(C)C)C(=O)N[C@H]1C(=O)N[C@@H](CC(N)=O)C(=O)N[C@H]2C(=O)N[C@H]3C(=O)N[C@H](C(=O)N[C@H](C(=O)O)c4cc(O)cc(O)c4-c4cc3ccc4O)[C@H](O)c3ccc(c(Cl)c3)Oc3cc2cc(c3O[C@@H]2O[C@H](CO)[C@@H](O)[C@H](O)[C@H]2O[C@H]2C[C@](C)(NCCCc3cn(C4CN(C(c5ccccc5)c5ccccc5)C4)nn3)[C@H](O)[C@H](C)O2)Oc2ccc(cc2Cl)[C@H]1O`, the MIC in assay [1] is ≤ 0.015 µg/mL; in assay [2], ≤ 0.03 µg/mL; in [3] it was ≤ 0.03 µg/mL; in assay [4] it was ≤ 0.015 µg/mL; in [5], 0.5 µg/mL (≈ 0.281 µM); in assay [6], ≤ 0.03 µg/mL. Also, the minimal inhibitory concentration (MIC) in assay [8] was 0.06 µg/mL (≈ 0.0337 µM); in assay [9] it was 8 µg/mL (≈ 4.5 µM); in [10] it was ≤ 0.03 µg/mL; in assay [11], ≤ 0.03 µg/mL; in assay [12] it was ≤ 0.03 µg/mL; in assay [13], ≤ 0.03 µg/mL. Also, the “fold change (FC)” value in assay [14] and in [15] was 8 throughout.
For the molecule `CN[C@H](CC(C)C)C(=O)N[C@H]1C(=O)N[C@@H](CC(N)=O)C(=O)N[C@H]2C(=O)N[C@H]3C(=O)N[C@H](C(=O)N[C@H](C(=O)O)c4cc(O)cc(O)c4-c4cc3ccc4O)[C@H](O)c3ccc(c(Cl)c3)Oc3cc2cc(c3O[C@@H]2O[C@H](CO)[C@@H](O)[C@H](O)[C@H]2O[C@H]2C[C@](C)(NCc3ccc(-c4ccc(C(F)(F)F)cc4)cc3)[C@H](O)[C@H](C)O2)Oc2ccc(cc2Cl)[C@H]1O`, the figures for the “fold change (FC)” value in [14] and in assay [15] were 16 and 8, respectively.
As to `CN[C@H](CC(C)C)C(=O)N[C@H]1C(=O)N[C@@H](CC(N)=O)C(=O)N[C@H]2C(=O)N[C@H]3C(=O)N[C@H](C(=O)N[C@H](C(=O)O)c4cc(O)cc(O)c4-c4cc3ccc4O)[C@H](O)c3ccc(c(Cl)c3)Oc3cc2cc(c3O[C@@H]2O[C@H](CO)[C@@H](O)[C@H](O)[C@H]2O[C@H]2C[C@](C)(NCc3ccc(Cl)cc3Cl)[C@H](O)[C@H](C)O2)Oc2ccc(cc2Cl)[C@H]1O`, the “fold change (FC)” value in assay [14] was 8.
`CN[C@H](CC(C)C)C(=O)N[C@H]1C(=O)N[C@@H](CC(N)=O)C(=O)N[C@H]2C(=O)N[C@H]3C(=O)N[C@H](C(=O)N[C@H](C(=O)O)c4cc(O)cc(O)c4-c4cc3ccc4O)[C@H](O)c3ccc(c(Cl)c3)Oc3cc2cc(c3O[C@@H]2O[C@H](CO)[C@@H](O)[C@H](O)[C@H]2O[C@H]2C[C@](C)(NCCCc3cn(-c4cccc(NC(=O)OC(C)(C)C)c4)nn3)[C@H](O)[C@H](C)O2)Oc2ccc(cc2Cl)[C@H]1O`: the “fold change (FC)” value in [14] and in assay [15] was 8 each time.
For the molecule `CN[C@H](CC(C)C)C(=O)N[C@H]1C(=O)N[C@@H](CC(N)=O)C(=O)N[C@H]2C(=O)N[C@H]3C(=O)N[C@H](C(=O)N[C@H](C(=O)O)c4cc(O)cc(O)c4-c4cc3ccc4O)[C@H](O)c3ccc(c(Cl)c3)Oc3cc2cc(c3O[C@@H]2O[C@H](CO)[C@@H](O)[C@H](O)[C@H]2O[C@H]2C[C@](C)(NCCCc3cn(-c4ccc(OC(F)F)cc4)nn3)[C@H](O)[C@H](C)O2)Oc2ccc(cc2Cl)[C@H]1O`, the “fold change (FC)” value in [14] and in [15] was 8 throughout.
Turning to `CN[C@H](CC(C)C)C(=O)N[C@H]1C(=O)N[C@@H](CC(N)=O)C(=O)N[C@H]2C(=O)N[C@H]3C(=O)N[C@H](C(=O)N[C@H](C(=O)O)c4cc(O)c(CN(C)Cc5cn(-c6cccc(NC(=O)OC(C)(C)C)c6)nn5)c(O)c4-c4cc3ccc4O)[C@H](O)c3ccc(c(Cl)c3)Oc3cc2cc(c3O[C@@H]2O[C@H](CO)[C@@H](O)[C@H](O)[C@H]2O[C@H]2C[C@](C)(NCc3cccc(-c4cc(F)ccc4F)n3)[C@H](O)[C@H](C)O2)Oc2ccc(cc2Cl)[C@H]1O`, the “fold change (FC)” value in assay [14] is given as 8.
As for `CN[C@H](CC(C)C)C(=O)N[C@H]1C(=O)N[C@@H](CC(N)=O)C(=O)N[C@H]2C(=O)N[C@H]3C(=O)N[C@H](C(=O)N[C@H](C(=O)O)c4cc(O)cc(O)c4-c4cc3ccc4O)[C@H](O)c3ccc(c(Cl)c3)Oc3cc2cc(c3O[C@@H]2O[C@H](CO)[C@@H](O)[C@H](O)[C@H]2O[C@H]2C[C@](C)(NCCCc3cn(Cc4ccc(Cl)c(Cl)c4)nn3)[C@H](O)[C@H](C)O2)Oc2ccc(cc2Cl)[C@H]1O`, the minimum inhibitory concentration (MIC) was ≤ 0.015 µg/mL in assay [1]; ≤ 0.03 µg/mL in assay [2]; ≤ 0.03 µg/mL in assay [3]; ≤ 0.015 µg/mL in [4]; 0.125 µg/mL (≈ 0.0728 µM) in assay [5]; ≤ 0.03 µg/mL in [6]. Also, the minimal inhibitory concentration (MIC) was 0.06 µg/mL (≈ 0.0349 µM) in [7]; ≤ 0.03 µg/mL in assay [8]; 4 µg/mL (≈ 2.33 µM) in [9]; ≤ 0.03 µg/mL in assay [10]; ≤ 0.03 µg/mL in assay [11]; ≤ 0.03 µg/mL in [12]. Moreover, in [13], the minimal inhibitory concentration (MIC) was ≤ 0.03 µg/mL. In addition, the “fold change (FC)” value in assay [14] and in assay [15] was 8 in each case.
